# Like-named read-outs stand apart in the source and are kept apart here.
# Tests used:
# [1] = system: healthy subjects; assay: Safety and tolerability (TEAEs), part 1, single inhaled dose; type: in vivo, human
# Procedure: Subjects were discharged 24 h post-dose (day 2) provided there were no safety concerns, and returned for three outpatient visits on days 3, 8 and 14 post-dose, with a post-study follow-up between days 26 and 30. Safety and PK assessments were made at predetermined time-points.
# Following completion of dosing for the final subject in each dosing cohort, an interim dose review meeting was held with a safety committee consisting of the principal investigator, medical monitor, pharmacokineticist and statistician to review the safety, tolerability and PK data (study design schematic shown in figure 1). The study statistician and pharmacokineticist were unblinded at the end of each cohort in order to conduct the analyses required for dose review decisions. The primary end-point was the safety and tolerability of single or multiple doses of TD139 in healthy subjects or IPF patients, respectively.
# [2] = system: Gal-3; type: in vivo, human; details: for Galectin-3 raw data, Mean (SD) / Gal-3 least square means % baseline±SEM: IPF patients; for Galectin-3 raw data, Mean (SD): Day 14; for Gal-3 least square means % baseline±SEM: day 14
# Procedure: All patients, investigators, sites and study sponsor personnel were blinded to the study group assignments throughout the study. Patients underwent study-specific assessments on days 2, 3, 7, 14 and 15, and a post-study assessment was carried out 26–30 days after the last day of the study period. Assessments included vital signs (supine blood pressure, pulse, oxygen saturation, oral temperature and respiratory rate), spirometry, 12-lead ECG, physical examination, laboratory safety screen (haematology, biochemistry, urinalysis and urinary drugs of abuse screen) and blood sampling for PK measurements. All adverse events and concomitant medications were recorded from the time of the screening visit until the post-study follow-up visit. […] The BAL procedure was performed as per international guidelines. Briefly, 240 mL of 0.9% saline at room temperature was instilled in 40 mL aliquots into the right middle lobe and aspirated by suction after each aliquot.
# BAL cells were separated from fluid by centrifugation, and cells were collected, stained with antibodies (supplementary material) and then fixed before analysis using a LSR Fortessa flow cytometer (Becton Dickinson, Franklin Lakes, NJ, USA). Data were analysed using FlowJo software (Tree Star, Ashland, OR, USA). Macrophages were identified as having high side scatter properties and human leukocyte antigen-DR positivity. Gal-3 expression (mean fluorescence intensity) was determined from the macrophage gate (supplementary figures S1 and S2). […] Samples were analysed by magnetic Luminex assay (R&D Systems, Minneapolis, MN, USA) or ELISA.
# For part 2 of the study, placebos were combined from the three dose-specific cohorts into a pooled control group (n=9). For alveolar macrophage Gal-3 expression and the plasma biomarkers, ANCOVA was performed for percentage of baseline ((day 14/day 1)×100). The ANCOVA model included effects for treatment group and baseline (day 1) value. […] An additional analysis including dose as a continuous covariate was also performed. The Pearson correlation coefficient (r) and associated p-value were calculated for percentage of baseline and day 14 values between plasma biomarkers and alveolar macrophage Gal-3 expression. […] The analysis is exploratory and there was no pre-planned adjustment for multiple testing; the study was not powered for this. Alveolar macrophage Gal-3 expression was considered the primary exploratory analysis with the pre-selected biomarkers secondary. A Bonferroni correction for multiple testing of the secondary end-points comparing the 10 mg group with placebo gives a critical value of 0.0063. […] All analyses were performed using SAS version 9.4 (SAS Institute, Cary, NC, USA). […]
# Plasma pharmacodynamic biomarkers
# The following pre-specified biomarkers were evaluated in samples of plasma based on the basis
# [3] = healthy subjects, single inhaled 0.15 mg
# [4] = healthy subjects, single inhaled 1.5 mg
# [5] = healthy subjects, single inhaled 3 mg
# [6] = healthy subjects, single inhaled 10 mg
# [7] = healthy subjects, single inhaled 20 mg
# [8] = healthy subjects, single inhaled 50 mg
smiles,measurement,setting,value
OC[C@H]1O[C@@H](S[C@@H]2O[C@H](CO)[C@H](O)[C@H](n3cc(-c4cccc(F)c4)nn3)[C@H]2O)[C@H](O)[C@@H](n2cc(-c3cccc(F)c3)nn2)[C@H]1O [TD139],safety and tolerability,"[1]; healthy subjects, single doses up to 50 mg",safe and well tolerated
same,Subjects reporting ≥1 TEAE: Serious TEAE,[1]; [3],0 n (%)
same,Subjects reporting ≥1 TEAE: TEAE,[1]; [3],0 n (%)
same,Subjects reporting ≥1 TEAE: TEAE leading to withdrawal,[1]; [3],0 n (%)
same,Subjects with TEAE by relationship to study IMP: Almost definite,[1]; [3],0 n (%)
same,Subjects with TEAE by relationship to study IMP: Possible,[1]; [3],0 n (%)
same,Subjects with TEAE by relationship to study IMP: Probable,[1]; [3],0 n (%)
same,Subjects with TEAE by relationship to study IMP: Unlikely,[1]; [3],0 n (%)
same,Subjects with TEAE by severity: Mild,[1]; [3],0 n (%)
same,TEAEs,[1]; [3],0 n
same,Subjects reporting ≥1 TEAE: Serious TEAE,[1]; [4],0 n (%)
same,Subjects reporting ≥1 TEAE: TEAE,[1]; [4],0 n (%)
same,Subjects reporting ≥1 TEAE: TEAE leading to withdrawal,[1]; [4],0 n (%)
same,Subjects with TEAE by relationship to study IMP: Almost definite,[1]; [4],0 n (%)
same,Subjects with TEAE by relationship to study IMP: Possible,[1]; [4],0 n (%)
same,Subjects with TEAE by relationship to study IMP: Probable,[1]; [4],0 n (%)
same,Subjects with TEAE by relationship to study IMP: Unlikely,[1]; [4],0 n (%)
same,Subjects with TEAE by severity: Mild,[1]; [4],0 n (%)
same,TEAEs,[1]; [4],0 n
same,Subjects reporting ≥1 TEAE: Serious TEAE,[1]; [5],0 n (%)
same,Subjects reporting ≥1 TEAE: TEAE,[1]; [5],2 (50.0) n (%)
same,Subjects reporting ≥1 TEAE: TEAE leading to withdrawal,[1]; [5],0 n (%)
same,Subjects with TEAE by relationship to study IMP: Almost definite,[1]; [5],1 (25.0) n (%)
same,Subjects with TEAE by relationship to study IMP: Possible,[1]; [5],0 n (%)
same,Subjects with TEAE by relationship to study IMP: Probable,[1]; [5],0 n (%)
same,Subjects with TEAE by relationship to study IMP: Unlikely,[1]; [5],1 (25.0) n (%)
same,Subjects with TEAE by severity: Mild,[1]; [5],2 (50.0) n (%)
same,TEAEs,[1]; [5],2 n
same,Subjects reporting ≥1 TEAE: Serious TEAE,[1]; [6],0 n (%)
same,Subjects reporting ≥1 TEAE: TEAE,[1]; [6],3 (75.0) n (%)
same,Subjects reporting ≥1 TEAE: TEAE leading to withdrawal,[1]; [6],0 n (%)
same,Subjects with TEAE by relationship to study IMP: Almost definite,[1]; [6],3 (75.0) n (%)
same,Subjects with TEAE by relationship to study IMP: Possible,[1]; [6],2 (50.0) n (%)
same,Subjects with TEAE by relationship to study IMP: Probable,[1]; [6],0 n (%)
same,Subjects with TEAE by relationship to study IMP: Unlikely,[1]; [6],0 n (%)
same,Subjects with TEAE by severity: Mild,[1]; [6],3 (75.0) n (%)
same,TEAEs,[1]; [6],7 n
same,Subjects reporting ≥1 TEAE: Serious TEAE,[1]; [7],0 n (%)
same,Subjects reporting ≥1 TEAE: TEAE,[1]; [7],4 (100.0) n (%)
same,Subjects reporting ≥1 TEAE: TEAE leading to withdrawal,[1]; [7],0 n (%)
same,Subjects with TEAE by relationship to study IMP: Almost definite,[1]; [7],4 (100.0) n (%)
same,Subjects with TEAE by relationship to study IMP: Possible,[1]; [7],1 (25.0) n (%)
same,Subjects with TEAE by relationship to study IMP: Probable,[1]; [7],1 (25.0) n (%)
same,Subjects with TEAE by relationship to study IMP: Unlikely,[1]; [7],0 n (%)
same,Subjects with TEAE by severity: Mild,[1]; [7],4 (100.0) n (%)
same,TEAEs,[1]; [7],7 n
same,Subjects reporting ≥1 TEAE: Serious TEAE,[1]; [8],0 n (%)
same,Subjects reporting ≥1 TEAE: TEAE,[1]; [8],4 (100.0) n (%)
same,Subjects reporting ≥1 TEAE: TEAE leading to withdrawal,[1]; [8],0 n (%)
same,Subjects with TEAE by relationship to study IMP: Almost definite,[1]; [8],4 (100.0) n (%)
same,Subjects with TEAE by relationship to study IMP: Possible,[1]; [8],3 (75.0) n (%)
same,Subjects with TEAE by relationship to study IMP: Probable,[1]; [8],0 n (%)
same,Subjects with TEAE by relationship to study IMP: Unlikely,[1]; [8],0 n (%)
same,Subjects with TEAE by severity: Mild,[1]; [8],4 (100.0) n (%)
same,TEAEs,[1]; [8],10 n
same,"biochemistry, haematology, vital signs or 12-lead ECG data","[1]; part 1, healthy subjects",no clinically significant safety findings or treatment- or dose-related changes observed
same,incidence of cough,"[1]; part 1, healthy subjects",11.1%
same,incidence of mild dysgeusia (most commonly occurring TEAE),"[1]; part 1, healthy subjects",36.1%
same,"circulating Gal-3 plasma concentrations (percentage of baseline), difference versus placebo",[2]; 10 mg dose group,−67.63%
same,"Galectin-3 raw data, Mean (SD)","[2]; plasma, 0.3 mg",13290.4 (4951.24) pg/ml
same,"Galectin-3 raw data, Mean (SD)","[2]; plasma, 3 mg",9298.5 (3499.54) pg/ml
same,"Galectin-3 raw data, Mean (SD)","[2]; plasma, 10 mg",4486.3 (697.25) pg/ml
same,Gal-3 least square means % baseline±SEM,"[2]; plasma, 0.3 mg once daily",113.9±21.2 % baseline
same,Gal-3 least square means % baseline±SEM,"[2]; plasma, 3 mg once daily",119.5±21.3 % baseline
same,Gal-3 least square means % baseline±SEM,"[2]; plasma, 10 mg once daily",53.4±23.5 % baseline
same,Gal-3 difference in least square means % baseline (95% CI),"[2]; plasma, 10 mg vs placebo, ANCOVA",−67.6 (−126.9– −8.4) % baseline

# Reference: publication PMC8156151 (The European Respiratory Journal, 2021)
